Data published in patent US10059688B2, “Protein tyrosine kinase modulators and methods of use” (BETTA PHARMACEUTICALS CO., LTD., priority 2013, dated 2018).

Experiments:
Assay in all cases: Kinase assay, single dose inhibition (Millipore, 33P-ATP filter binding)
Type in all cases: biochemical
Conditions in all cases: 0.1 μM test compound, 10 μM ATP; remaining activity relative to DMSO control = 100%
EGFR (h) = EGFR (h) (Homo sapiens (Human), UniProt P00533)
ALK (h) = ALK (h) (Homo sapiens (Human), UniProt Q9UM73)
ALK (h), sequence (Q9UM73 19-1620): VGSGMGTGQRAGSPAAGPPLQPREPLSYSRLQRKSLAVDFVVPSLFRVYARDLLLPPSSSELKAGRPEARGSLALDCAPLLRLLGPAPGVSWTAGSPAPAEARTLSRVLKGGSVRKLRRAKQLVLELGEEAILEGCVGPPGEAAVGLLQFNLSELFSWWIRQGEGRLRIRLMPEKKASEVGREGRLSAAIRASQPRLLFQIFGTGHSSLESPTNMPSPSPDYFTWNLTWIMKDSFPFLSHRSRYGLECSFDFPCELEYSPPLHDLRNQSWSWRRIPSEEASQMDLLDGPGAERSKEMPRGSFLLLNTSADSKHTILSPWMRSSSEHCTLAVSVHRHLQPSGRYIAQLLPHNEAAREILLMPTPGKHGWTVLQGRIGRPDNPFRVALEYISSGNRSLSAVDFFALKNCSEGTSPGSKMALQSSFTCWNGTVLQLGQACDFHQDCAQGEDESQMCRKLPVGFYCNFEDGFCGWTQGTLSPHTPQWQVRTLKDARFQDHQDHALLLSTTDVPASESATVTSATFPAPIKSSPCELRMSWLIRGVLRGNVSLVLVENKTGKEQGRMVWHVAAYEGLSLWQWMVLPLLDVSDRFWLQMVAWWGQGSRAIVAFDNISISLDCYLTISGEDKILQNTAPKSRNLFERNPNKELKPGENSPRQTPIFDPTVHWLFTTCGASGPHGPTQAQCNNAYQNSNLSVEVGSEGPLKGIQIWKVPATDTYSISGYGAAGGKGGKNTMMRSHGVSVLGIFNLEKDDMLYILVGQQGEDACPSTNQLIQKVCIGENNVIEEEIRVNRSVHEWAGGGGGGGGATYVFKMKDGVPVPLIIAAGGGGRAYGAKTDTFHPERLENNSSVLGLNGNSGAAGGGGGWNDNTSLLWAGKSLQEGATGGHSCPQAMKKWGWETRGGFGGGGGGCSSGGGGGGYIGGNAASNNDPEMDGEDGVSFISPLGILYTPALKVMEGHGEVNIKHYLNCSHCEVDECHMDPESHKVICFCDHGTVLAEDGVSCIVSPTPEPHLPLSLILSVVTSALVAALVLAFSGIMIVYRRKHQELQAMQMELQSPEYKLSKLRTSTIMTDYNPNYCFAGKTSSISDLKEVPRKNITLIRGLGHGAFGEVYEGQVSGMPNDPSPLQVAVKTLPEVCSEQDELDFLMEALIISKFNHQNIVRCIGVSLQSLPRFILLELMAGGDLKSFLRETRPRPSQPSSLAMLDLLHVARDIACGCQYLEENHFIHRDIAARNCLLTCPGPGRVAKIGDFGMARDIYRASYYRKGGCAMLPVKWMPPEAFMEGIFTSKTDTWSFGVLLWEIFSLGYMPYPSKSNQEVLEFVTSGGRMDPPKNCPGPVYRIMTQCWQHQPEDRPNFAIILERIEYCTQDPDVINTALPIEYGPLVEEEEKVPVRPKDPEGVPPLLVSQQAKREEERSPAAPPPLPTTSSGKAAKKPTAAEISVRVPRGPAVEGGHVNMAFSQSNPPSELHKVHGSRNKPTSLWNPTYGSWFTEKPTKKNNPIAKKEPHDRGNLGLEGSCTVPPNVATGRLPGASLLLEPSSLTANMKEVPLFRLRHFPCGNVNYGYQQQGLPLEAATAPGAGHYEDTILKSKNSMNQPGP

EGFR (L858R) (h) = EGFR (L858R) (h) (Homo sapiens (Human), UniProt P00533, L858R)
Description: (§1) Assay conditions included 10 μM ATP and 100 nM test compounds.
(§2) All reactions are initiated by the addition of the MgATP mix. After incubation for 40 minutes at room temperature, the reaction is stopped by the addition of 3% phosphoric acid solution. 10 μL of the reaction is then spotted onto a P30 filtermat and washed three times for 5 minutes in 75 mM phosphoric acid and once in methanol prior to drying and scintillation counting. This assay is performed by Millipore. The experiment is carried out in duplicate. The value for the control sample (DMSO) was set to 100%, and the values for the compound-treated samples were expressed as activity relative to the control sample.

EGFR (T790M) (h) = EGFR (T790M) (h) (Homo sapiens (Human), UniProt P00533, T790M)
EGFR (T790M, L858R) (h) = EGFR (T790M, L858R) (h) (Homo sapiens (Human), UniProt P00533, L858R/T790M)
EGFR (T790M, L858R) (h), sequence (P00533 25-1210 T790M/L858R): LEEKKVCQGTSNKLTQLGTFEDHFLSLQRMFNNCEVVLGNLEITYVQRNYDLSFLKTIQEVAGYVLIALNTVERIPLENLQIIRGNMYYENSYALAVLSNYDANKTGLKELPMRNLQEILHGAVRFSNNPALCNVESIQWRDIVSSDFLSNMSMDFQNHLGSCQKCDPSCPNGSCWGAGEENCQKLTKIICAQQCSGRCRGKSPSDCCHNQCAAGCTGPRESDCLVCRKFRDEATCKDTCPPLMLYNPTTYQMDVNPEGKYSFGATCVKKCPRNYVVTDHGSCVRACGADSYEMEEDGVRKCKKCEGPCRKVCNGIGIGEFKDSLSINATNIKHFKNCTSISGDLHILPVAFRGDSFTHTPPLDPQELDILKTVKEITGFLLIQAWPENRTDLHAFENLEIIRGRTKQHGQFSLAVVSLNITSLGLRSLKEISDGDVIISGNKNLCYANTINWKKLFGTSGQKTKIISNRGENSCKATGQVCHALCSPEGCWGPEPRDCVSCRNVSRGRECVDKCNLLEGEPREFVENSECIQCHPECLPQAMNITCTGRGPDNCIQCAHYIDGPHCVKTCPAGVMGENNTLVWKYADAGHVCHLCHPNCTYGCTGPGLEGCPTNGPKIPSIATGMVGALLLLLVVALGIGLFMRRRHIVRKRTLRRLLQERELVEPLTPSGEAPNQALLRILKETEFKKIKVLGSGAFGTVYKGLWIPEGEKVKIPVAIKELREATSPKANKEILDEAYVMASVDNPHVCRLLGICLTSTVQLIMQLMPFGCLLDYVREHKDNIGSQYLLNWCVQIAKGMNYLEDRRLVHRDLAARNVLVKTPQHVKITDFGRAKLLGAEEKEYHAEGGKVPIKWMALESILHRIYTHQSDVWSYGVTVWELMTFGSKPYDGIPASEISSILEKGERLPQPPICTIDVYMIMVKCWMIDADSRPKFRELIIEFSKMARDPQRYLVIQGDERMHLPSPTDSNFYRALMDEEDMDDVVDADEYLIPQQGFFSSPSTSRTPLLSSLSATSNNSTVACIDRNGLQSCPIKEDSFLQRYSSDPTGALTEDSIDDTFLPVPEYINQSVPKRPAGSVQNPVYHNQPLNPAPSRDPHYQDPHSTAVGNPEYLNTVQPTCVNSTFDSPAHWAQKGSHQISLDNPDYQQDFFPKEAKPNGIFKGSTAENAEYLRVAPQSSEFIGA
Description: as §1, §2

EGFR (h), sequence (P00533 25-1210): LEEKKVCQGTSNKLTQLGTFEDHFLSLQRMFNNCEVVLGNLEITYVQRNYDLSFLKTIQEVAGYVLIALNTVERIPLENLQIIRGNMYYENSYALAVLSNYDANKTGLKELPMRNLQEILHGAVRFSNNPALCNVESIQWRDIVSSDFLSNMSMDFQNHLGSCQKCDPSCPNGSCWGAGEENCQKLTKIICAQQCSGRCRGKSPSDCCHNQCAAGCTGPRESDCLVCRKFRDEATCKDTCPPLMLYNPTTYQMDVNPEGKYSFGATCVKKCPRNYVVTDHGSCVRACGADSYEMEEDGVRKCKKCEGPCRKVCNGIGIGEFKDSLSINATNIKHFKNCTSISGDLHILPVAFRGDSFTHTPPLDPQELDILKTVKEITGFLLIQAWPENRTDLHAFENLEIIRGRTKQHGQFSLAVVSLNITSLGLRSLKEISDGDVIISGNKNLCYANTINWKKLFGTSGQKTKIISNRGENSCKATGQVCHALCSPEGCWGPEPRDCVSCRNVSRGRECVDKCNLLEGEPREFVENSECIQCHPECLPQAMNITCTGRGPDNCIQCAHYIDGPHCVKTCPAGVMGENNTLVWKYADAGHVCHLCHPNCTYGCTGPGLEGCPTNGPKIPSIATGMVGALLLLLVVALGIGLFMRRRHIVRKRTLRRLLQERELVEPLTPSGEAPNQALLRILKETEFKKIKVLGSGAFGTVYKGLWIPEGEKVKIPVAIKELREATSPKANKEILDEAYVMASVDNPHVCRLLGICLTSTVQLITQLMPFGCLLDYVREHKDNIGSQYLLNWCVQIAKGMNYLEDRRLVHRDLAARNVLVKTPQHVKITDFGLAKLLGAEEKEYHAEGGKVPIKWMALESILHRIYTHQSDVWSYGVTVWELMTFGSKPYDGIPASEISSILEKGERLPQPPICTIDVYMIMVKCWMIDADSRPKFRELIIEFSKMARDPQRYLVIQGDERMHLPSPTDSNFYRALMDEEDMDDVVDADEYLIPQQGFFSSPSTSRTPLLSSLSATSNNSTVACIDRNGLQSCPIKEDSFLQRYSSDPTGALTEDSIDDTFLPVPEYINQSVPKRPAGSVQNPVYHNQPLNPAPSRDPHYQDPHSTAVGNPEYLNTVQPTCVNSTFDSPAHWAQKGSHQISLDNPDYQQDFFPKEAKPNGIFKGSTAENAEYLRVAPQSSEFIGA

| SMILES | Activity (control) % EGFR (h) (EGFR (h)) [%] | Activity (control) % ALK (h) (ALK (h)) [%] | Activity (control) % EGFR (L858R) (h) (EGFR (L858R) (h)) [%] | Activity (control) % EGFR (T790M) (h) (EGFR (T790M) (h)) [%] | Activity (control) % EGFR (T790M, L858R) (h) (EGFR (T790M, L858R) (h)) [%] |
| --- | --- | --- | --- | --- | --- |
| COc1cc(Nc2ncc(Cl)c(Nc3ccccc3C(=O)C(=O)N(C)C)n2)ccc1N1CCN(C(C)=O)CC1 [Example 94, 2-(2-(2-(4-(4-acetylpiperazin-1-yl)-3-methoxyphenylamino)-5-chloropyrimidin-4-ylamino)phenyl)-N,N-dimethyl-2-oxoacetamide] | 100 | 6 | 84 | 45 | 9 |
| C=C(CN1CCCC1)C(=O)Nc1ccc(OC)c(Nc2ncc(Cl)c(Nc3ccccc3C(=O)C(=O)N(C)C)n2)c1 [Example 97, N-(3-(5-chloro-4-(2-(2-(dimethylamino)-2-oxoactyl)phenylamino)pyrimidin-2-ylamino)-4-methoxyphenyl)-2-(pyrrolidin-1-ylmethyl)acrylamide] | 74 | 23 | 46 | 2 | 6 |
| C=CC(=O)Nc1cc(Nc2ncc(C)c(Nc3ccccc3C(=O)C(=O)N(C)C)n2)ccc1OC [Example 101, N-(5-(4-(2-(2-(dimethylamino)-2-oxoacetyl)phenylamino)-5-methylpyrimidin-2-ylamino)-2-methoxyphenyl)acrylamide] | 110 | 35 | 94 | 83 | 41 |
| C=CC(=O)Nc1cc(Nc2ncc(Cl)c(Nc3ccccc3C(=O)C(=O)N(C)CCN(C)C)n2)ccc1OC [Example 102, N-(5-(5-chloro-4-(2-(2-((2-(dimethylamino)ethyl)(methyl)amino)-2-oxoactyl)phenylamino)pyrimidin-2-ylamino)-2-methoxyphenyl)acrylamide] | 98 | 5 | 57 | 40 | 5 |
| C=CC(=O)Nc1cc(Nc2ncc(Cl)c(Nc3ccccc3C(=O)C(=O)N(C)C)n2)ccc1N1CCN(C)CC1 [Example 111, N-(5-(5-chloro-4-(2-(2-(dimethylamino)-2-oxoactyl)phenylamino)pyrimidin-2-ylamino)-2-(4-methylpiperazin-1-yl)phenyl)acrylamide] | 109 | 8 | 76 | 59 | 11 |
| C=C(CN1CCCCC1)C(=O)Nc1cccc(Nc2ncc(Cl)c(Nc3ccccc3C(=O)C(=O)N(C)C)n2)c1 [Example 113, N-(3-(5-chloro-4-(2-(2-(dimethylamino)-2-oxoacetyl)phenylamino)pyrimidin-2-ylamino)phenyl)-2-(piperidin-1-ylmethyl)acrylamide] | 88 | 19 | 78 | 16 | 3 |
| CN(C)C/C=C/C(=O)Nc1cccc(Nc2ncc(Cl)c(Nc3ccccc3C(=O)C(=O)N(C)C)n2)c1 [Example 114, (E)-N-(3-(5-chloro-4-(2-(2-(dimethylamino)-2-oxoacetyl)phenylamino)pyrimidin-2-ylamino)phenyl)-4-(dimethylamino)but-2-enamide] | 91 | 10 | 52 | 47 | 8 |
| COc1cc(Nc2ncc(Cl)c(Nc3ccccc3C(=O)C(=O)N(C)C)n2)ccc1N1CCOCC1 [Example 117, 2-(2-(5-chloro-2-(3-methoxy-4-morpholinophenylamino)pyrimidin-4-ylamino)phenyl)-N,N-dimethyl-2-oxoacetamide] | 113 | 8 | 88 | 65 | 14 |
| CCC(=O)Nc1cc(Nc2ncc(Cl)c(Nc3ccccc3C(=O)C(=O)N(C)C)n2)ccc1OCCN(C)C [Example 120, N-(5-(5-chloro-4-(2-(2-(dimethylamino)-2-oxoactyl)phenylamino)pyrimidin-2-ylamino)-2-(2-(dimethylamino)ethoxy)phenyl)propionamide] | 115 | 8 | 76 | 62 | 14 |
| CN(C)C(=O)C(=O)c1ccccc1Nc1nc(Nc2ccc(F)c(NC(=O)CCN3CCOCC3)c2)ncc1Cl [Example 123, N-(5-(5-chloro-4-(2-(2-(dimethylamino)-2-oxoactyl)phenylamino)pyrimidin-2-ylamino)-2-fluorophenyl)-3-morpholinopropanamide] | 115 | 17 | 94 | 84 | 31 |
| C=C(CN(C)CCN(C)C)C(=O)Nc1cccc(Nc2ncc(Cl)c(Nc3ccccc3C(=O)C(=O)N(C)C)n2)c1 [Example 125, N-(3-(5-chloro-4-(2-(2-(dimethylamino)-2-oxoacetyl)phenylamino)pyrimidin-2-ylamino)phenyl)-2-(((2-(dimethylamino)ethyl)(methyl)amino)methyl)acrylamide] | 106 | 20 | 54 | 18 | 2 |
| C=C(CN1CCCCC1)C(=O)Nc1cc(Nc2ncc(Cl)c(Nc3ccccc3C(=O)C(=O)N(C)C)n2)ccc1N1CCOCC1 [Example 129, N-(5-(5-chloro-4-(2-(2-(dimethylamino)-2-oxoactyl)phenylamino)pyrimidin-2-ylamino)-2-morpholinophenyl)-2-(piperidin-1-ylmethyl)acrylamide] | 104 | 8 | 75 | 24 | 3 |
| CCN(CC)C(=O)C(=O)c1ccccc1Nc1nc(Nc2ccc(N3CCN(C)CC3)c(OC)c2)ncc1Cl [Example 130, 2-(2-(5-chloro-2-(3-methoxy-4-(4-methylpiperazin-1-yl)phenylamino)pyrimidin-4-ylamino)phenyl)-N,N-diethyl-2-oxoacetamide] | 113 | 13 | 98 | 84 | 22 |
| C=CC(=O)Nc1cc(Nc2ncc(Cl)c(Nc3ccccc3C(=O)C(=O)N(CC)CC)n2)ccc1OC [Example 132, N-(5-(5-chloro-4-(2-(2-(diethylamino)-2-oxoactyl)phenylamino)pyrimidin-2-ylamino)-2-methoxyphenyl)acrylamide] | 103 | 16 | 114 | 77 | 30 |
